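These data come from cells grown in 96-well plates and exposed to compound for 48 hours at five concentrations. At the GI50, growth is halved.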 Active and inactive are the calls of the source. Cut-off read from the data, not from the text of the source: active = GI50 up to about 1.1 µM and inactive = higher.
Columns and labels:
Assay in all cases: DTP human tumour cell line panel, 48 h
786-0 = test system: 786-0
UACC-257 = test system: UACC-257
KM12 = test system: KM12
SF-295 = test system: SF-295
ACHN = test system: ACHN
HCT-15 = test system: HCT-15
COLO 205 = test system: COLO 205
HOP-92 = test system: HOP-92
HT-29 = test system: HT-29
UO-31 = test system: UO-31
NCI-H460 = test system: NCI-H460
SK-MEL-2 = test system: SK-MEL-2
SK-MEL-5 = test system: SK-MEL-5
MDA-MB-231 = test system: MDA-MB-231
OVCAR-5 = test system: OVCAR-5
Hs-578T = test system: Hs-578T
MDA-MB-435 = test system: MDA-MB-435
MCF7 = test system: MCF7

Compound | GI50 (786-0) | GI50 (UACC-257) | GI50 (KM12) | GI50 (SF-295) | GI50 (ACHN) | GI50 (HCT-15) [µM] | GI50 (COLO 205) | GI50 (HOP-92) | GI50 (HT-29) | GI50 (UO-31) | GI50 (NCI-H460) | GI50 (SK-MEL-2) | GI50 (SK-MEL-5) | GI50 (MDA-MB-231) | GI50 (OVCAR-5) | GI50 (Hs-578T) | GI50 (MDA-MB-435) | GI50 (MCF7)
CN(C)/C(=N\C#N)NCc1ccccc1 | > 100 µM (inactive) | > 100 µM (inactive) | > 100 µM (inactive) | > 100 µM (inactive) | > 100 µM (inactive) | > 100 | > 100 µM (inactive) | > 100 µM (inactive) | > 100 µM (inactive) | > 100 µM (inactive) | > 100 µM (inactive) | > 100 µM (inactive) | > 100 µM (inactive) | – | – | – | – | –
COc1ccc([Se]c2ccc(OC)cc2)cc1 | > 100 µM (inactive) | 48.2 µM (inactive) | > 100 µM (inactive) | > 100 µM (inactive) | > 100 µM (inactive) | 68.1 | > 100 µM (inactive) | 23.9 µM (inactive) | 43.6 µM (inactive) | 2.09 µM (inactive) | > 100 µM (inactive) | > 100 µM (inactive) | 48.2 µM (inactive) | – | – | – | – | –
COC(=O)c1c2c(cc3c1CC1(Cc4cc5c(c(C=O)c4C1)CCCC5)C3)CCCC2 (stereo not drawn) | > 100 µM (inactive) | 50.5 µM (inactive) | – | > 100 µM (inactive) | 23.9 µM (inactive) | 34.4 | 20.7 µM (inactive) | 56.6 µM (inactive) | 51.3 µM (inactive) | 0.103 µM (active) | – | 10.2 µM (inactive) | 71.4 µM (inactive) | 32.7 µM (inactive) | > 100 µM (inactive) | 29.2 µM (inactive) | > 100 µM (inactive) | 27 µM (inactive)
c1ccc2c(c1)SP1Sc3ccccc3P21 (stereo not drawn) | – | > 100 µM (inactive) | > 100 µM (inactive) | > 100 µM (inactive) | – | > 100 | > 100 µM (inactive) | > 100 µM (inactive) | 74.6 µM (inactive) | 68.1 µM (inactive) | > 100 µM (inactive) | > 80.7 µM (inactive) | > 100 µM (inactive) | – | > 100 µM (inactive) | – | – | > 100 µM (inactive)
O=C(O)c1ccccc1NC(=O)C1CCCCC1 | > 100 µM (inactive) | > 100 µM (inactive) | > 100 µM (inactive) | > 100 µM (inactive) | > 100 µM (inactive) | > 100 | > 100 µM (inactive) | 6.08 µM (inactive) | > 100 µM (inactive) | > 100 µM (inactive) | 66.1 µM (inactive) | > 100 µM (inactive) | > 100 µM (inactive) | – | > 100 µM (inactive) | – | – | –
COc1ccc2cc(C(=O)c3ccccc3C(=O)O)ccc2c1 | > 100 µM (inactive) | > 100 µM (inactive) | > 100 µM (inactive) | > 100 µM (inactive) | > 100 µM (inactive) | > 100 | > 100 µM (inactive) | – | > 100 µM (inactive) | > 100 µM (inactive) | > 100 µM (inactive) | > 100 µM (inactive) | > 100 µM (inactive) | – | > 100 µM (inactive) | – | – | –
Cn1ccnc1CCc1ccc(Cl)c(Cl)c1 | > 100 µM (inactive) | > 100 µM (inactive) | > 100 µM (inactive) | > 100 µM (inactive) | > 100 µM (inactive) | > 100 | > 100 µM (inactive) | 43.3 µM (inactive) | 86.7 µM (inactive) | 50.5 µM (inactive) | > 100 µM (inactive) | > 100 µM (inactive) | 37.5 µM (inactive) | – | > 100 µM (inactive) | – | – | –
CCN(CC)CCSc1c2ccccc2nc2cc(NCC(=O)Nc3ccccc3-c3ccccc3NC(=O)CNc3ccc4c(SCCN(CC)CC)c5ccccc5nc4c3)ccc12 | > 92.9 µM (inactive) | > 100 µM (inactive) | > 74.8 µM (inactive) | > 100 µM (inactive) | > 100 µM (inactive) | > 100 | > 35.2 µM (inactive) | > 100 µM (inactive) | > 100 µM (inactive) | > 100 µM (inactive) | > 100 µM (inactive) | > 100 µM (inactive) | > 100 µM (inactive) | – | > 100 µM (inactive) | – | – | –
N#CCCN(CCC#N)c1ccc(C(=O)NN)cc1 | > 100 µM (inactive) | > 100 µM (inactive) | > 100 µM (inactive) | > 100 µM (inactive) | > 100 µM (inactive) | > 100 | > 100 µM (inactive) | > 100 µM (inactive) | > 100 µM (inactive) | > 100 µM (inactive) | > 100 µM (inactive) | – | > 100 µM (inactive) | – | > 100 µM (inactive) | – | – | –
CN[C@@H](C)[C@H](NC)c1ccccc1 | > 100 µM (inactive) | > 100 µM (inactive) | > 100 µM (inactive) | > 100 µM (inactive) | – | 33.3 | > 100 µM (inactive) | > 100 µM (inactive) | > 100 µM (inactive) | > 100 µM (inactive) | – | – | > 100 µM (inactive) | – | – | – | – | –
